Assay type in all cases: cell-based, human
The subject of experiment [1] is EGFRviii expressing 08-387 and 913 glioblastoma cells. As to the kind of experiment: Gemcitabine sensitization assay (Alamar blue). The note with it: varying dosages of gemcitabine and 100 nM of compound 1. The method, then: Ten thousand 08-387 or 913 glioblastoma cells per well were seeded in a 96 well plate. […] Post 72 hr of treatment, cell viability was calculated on Alamar blue absorbance reading.
To further evaluate the potential role of EGFR in compound 1 resistance, the 913 and 08-387 neurosphere lines were transduced with lentiviruses encoding EGFRvIll or GFP (as control) and these neurospheres were challenged with a relatively high dose of 1 mM compound 1.

For the next experiment, the system named is 08-387 neurosphere line. As to the kind of experiment: Western blot for cleaved PARP1. The following applies: 10 nM. The method, then:
(§1) Western Blots were performed using 25 µg of protein per sample loaded onto NuPAGE® Novex® 4-12% Bis-Tris protein gels and transferred onto nitrocellulose membranes that were then blocked with 5% BSA in PBS and 0.1% Tween (PBST). Primary antibody incubation was performed in 5% BSA in PBST at 4° C. overnight, and HRP-labeled secondary antibody incubation (1:5000) was performed for one hour at room temperature in 5% BSA in PBST.
(§2) Antibodies used for western blotting were acquired from the following sources: Cleaved PARP (Asp214) (D64E10) XP® Rabbit mAb, Cell Signaling Technology Cat#5625, RRID:AB_10699459, 1:1000 for Western blots. Phospho-H2AX, Millipore Cat#RRID:AB_2755003, 1:1000 for Western blots, and 1:250 for immunofluorescence imaging. p-Tubulin, Millipore Cat #MAB5564, RRID:AB 11212768, 1:10,000 for Western blots. p44/42 MAPK (Erk1/2) (137F5) Rabbit mAb (Cell Signaling Technology Cat #4695, RRID:AB_390779) 1:1000 for Western blots; Phospho-p44/42 MAPK (Erk1/2) (Thr202/Tyr204) (Cell Signaling Technology Cat #9101, RRID:AB_331646) 1:1000 for Western blots; Akt Antibody (Cell Signaling Technology Cat #9272, RRID:AB_329827) 1:1000 for Western blots; Phospho-Akt (Ser473) Antibody (Cell Signaling Technology Cat #9271, RRID:AB 329825) 1:1000 for Western blots.
(§3) Poly(ADP-ribose) polymerase 1 (PARP1) is a nuclear protein that is activated by binding to DNA lesions and catalyzes the poly(ADP-ribosyl)ation of various nuclear proteins, including PARP1 itself, to recruit the DNA repair machinery to DNA lesions (53, 54. When excessive DNA damage occurs, PARP1 is cleaved to generate an 89 kDa fragment shown to serve as a cytoplasmic PAR carrier to induce AIF-mediated apoptosis (55). Given the profound induction of DNA damage in compound 1-treated GBM neurospheres, the prevalence of the 89 kDa PARP1 fragment in control and 10 nM compound 1-treated cells was measured. Strikingly, a 9.7- and 56-fold increase in the level of cleaved PARP1 was found in 913 and 08-387 neurosphere lines, respectively, when cultured in normoxia. Similarly, a 9.9- and 71-fold increase was documented in the level of cleaved PARP1 in 913 and 08-387 neurosphere lines cultured in hypoxia (FIG. 6).

A further experiment concerns 913 neurosphere line. As to the kind of experiment: Western blot for cleaved PARP1. The note with it: 10 nM. On the procedure:
as §1, §2, §3

On to `CCn1c(CO)nn(-c2cc(O[C@@H](C)C(F)(F)F)c(C(=O)Nc3c(F)cccc3Cl)cc2F)c1=O` [Compound 1, N-(2-chloro-6-fluorophenyl)-4-[4-ethyl-4,5-dihydro-3-(hydroxymethyl)-5-oxo-1H-1,2,4-triazol-1-yl]-5-fluoro-2-[(1S)-2,2,2-trifluoro-1-methylethoxy]-benzamide], for which the sensitization to gemcitabine entry in experiment [1] was “sensitizes”. Moreover, the “increase in the level of cleaved PARP1” value in the experiment on 08-387 neurosphere line (08-387, hypoxia) came to 71 fold; with 08-387 neurosphere line (08-387, normoxia), 56 fold; in the experiment on 913 neurosphere line (913, hypoxia) it was 9.9 fold; in the experiment on 913 neurosphere line (913, normoxia) it was 9.7 fold.

Values taken from patent publication US20240024291A1, “Uses of Dihydroorotate Dehydrogenase Inhibitors” (University of Maryland, Baltimore, priority 2022, published 2024).
